Measured values: PMC9916866 (International Journal of Molecular Sciences, 2023)
Read-outs that look alike come from different tables or passages of the source. Positions of bridges follow the written chain, without caps; N, C: chain ends. Residues, ends and D or L forms follow the SMILES beside them.

Key:
[1] = biological target: T1, AT1 receptor (Rattus norvegicus, UniProt P25095); assay: cell-based
[2] = biological target: T2, AT1 receptor (Homo sapiens, UniProt P30556); assay: cell-based
T2 sequence (P30556 1-359): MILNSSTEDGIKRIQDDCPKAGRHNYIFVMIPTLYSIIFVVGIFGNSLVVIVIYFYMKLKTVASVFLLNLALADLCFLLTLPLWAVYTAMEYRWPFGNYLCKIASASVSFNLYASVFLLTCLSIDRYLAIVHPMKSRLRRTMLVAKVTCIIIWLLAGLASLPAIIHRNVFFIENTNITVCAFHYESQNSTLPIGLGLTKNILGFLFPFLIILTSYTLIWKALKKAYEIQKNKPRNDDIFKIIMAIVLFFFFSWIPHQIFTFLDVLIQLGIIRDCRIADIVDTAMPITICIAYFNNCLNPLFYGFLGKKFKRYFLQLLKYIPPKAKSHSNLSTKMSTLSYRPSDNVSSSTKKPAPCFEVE

[3] = biological target: T3, human AT2 receptor (Homo sapiens, UniProt P50052); assay: biochemical; type: binding
T3 construct: expressed in transfected cells; host or cells: HEK293T
T3 sequence (P50052 1-363): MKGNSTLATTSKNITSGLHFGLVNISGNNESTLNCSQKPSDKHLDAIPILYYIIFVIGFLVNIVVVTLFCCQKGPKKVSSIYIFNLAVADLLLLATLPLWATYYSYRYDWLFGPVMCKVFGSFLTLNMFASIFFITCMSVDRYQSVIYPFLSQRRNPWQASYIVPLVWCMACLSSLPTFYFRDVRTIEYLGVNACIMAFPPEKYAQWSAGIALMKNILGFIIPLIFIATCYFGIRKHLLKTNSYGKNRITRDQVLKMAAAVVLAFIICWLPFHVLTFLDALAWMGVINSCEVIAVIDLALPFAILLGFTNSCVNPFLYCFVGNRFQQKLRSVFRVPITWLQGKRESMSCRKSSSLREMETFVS

[4] = biological target: T1, AT1 receptor; assay: biochemical; type: binding; settings: read-out: inhibition of the specific labelling by Cy5-AngII, AT1
[5] = biological target: T2, AT1 receptor; assay: cell-based; type: cell-based; design: expressed in transfected cells; host or cells: HEK293T
[6] = biological target: T1, AT1 receptor; assay: cell-based; settings: read-out: inhibition of AngII-induced ERK1/2 phosphorylation (western blot)
[7] = biological target: T2, AT1 receptor; assay: biochemical; type: binding; design: expressed in transfected cells; host or cells: HEK293T

T1 sequence (P25095 whole entry, looked up): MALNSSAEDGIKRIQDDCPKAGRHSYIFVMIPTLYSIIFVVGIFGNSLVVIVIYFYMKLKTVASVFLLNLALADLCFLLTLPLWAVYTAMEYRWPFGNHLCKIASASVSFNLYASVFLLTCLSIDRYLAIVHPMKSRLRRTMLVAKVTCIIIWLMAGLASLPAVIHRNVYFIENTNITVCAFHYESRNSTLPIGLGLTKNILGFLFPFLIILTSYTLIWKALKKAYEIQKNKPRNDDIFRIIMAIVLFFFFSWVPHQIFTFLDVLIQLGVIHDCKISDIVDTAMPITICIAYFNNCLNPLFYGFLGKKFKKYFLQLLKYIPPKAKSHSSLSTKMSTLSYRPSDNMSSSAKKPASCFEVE

Work on CC(C)[C@@H]1NC(=O)[C@H](Cc2c[nH]c3ccccc23)NC(=O)[C@H](Cc2ccccc2)NC(=O)[C@H](Cc2c[nH]cn2)NC(=O)[C@@H](N)CSSC[C@@H](C(=O)N2CCC[C@H]2C(=O)O)NC1=O [A-CTX-cMila] (H-CHFWVCP-OH; disulfide 1-6) yielded an IC50 [1] of 23.7 ± 4.6 µM, an IC50 [2] of 15.6 ± 3 µM and a Kb ([2]; KB, β-arrestin 2 recruitment) of 4.1 ± 3.1 µM. It also gave a Kb ([2]; pA2, β-arrestin 2 recruitment) of 2 µM, a Ki [3] of 27.5 ± 2.1 µM and an inhibition at 100 µM [4] of 74%. It also gave an IC50 [5] of 28.5 ± 12 µM, an inhibition at 20 µM [6] of 89% and a Ki [7] of 0.32 ± 0.13 µM.
